Results from patent publication US20130261136A1, “COFFEE EXTRACTS AS INGREDIENTS OF FOODS, DRUGS, COSMETICS, DIETARY SUPPLEMENTS, AND BIOLOGICS” (priority 2010, published 2013).

Assays:
[1] = ORAC assay adapted for the linoleate microemulsion system (relative ORAC, synergy)
Description: Synergistic effects of bioactive compounds combined with alpha-tocopherol. […] An OBS microplate was prepared with duplicate wells of Trolox solution standards (20 μL; 500, 250, 125, 62.5, or 31.25 μM) and triplicate wells of samples diluted in phosphate buffer (20 μL). The perimeter wells were not used for kinetic studies to avoid potential edge effects. The oxidation substrate, methyl linoleate microemulsion (200 μL), was then added. […] A control well containing 200 μL of microemulsion and 40 μL of phosphate buffer was used to normalize the fluorescence reading. The reaction kinetics were monitored at 37° C. for 2 h, with readings every 2 min, by a Synergy HT microplate fluorescent reader (Biotek Instruments Inc.). The microplate reader was fitted with an excitation filter at 485 nm, an emission filter of 590 nm, and an oxygen sensor biosystem, and the plate was shaken for 20 s at low intensity before each reading to ensure sufficient mixing. After normalization, the fluorescence data were converted to the oxygen concentration at each point of the reaction. The ORAC values of samples were determined as previously described ([…]. et al., Journal of Agricultural and Food Chemistry 2009, 57, 3409-3414).

[2] = tested on: human skeletal muscle cells; experiment: Glucose uptake (3H-2-deoxyglucose) in skeletal muscle cells; assay type: cell-based; conditions: 100 nM insulin (positive control)
Description: (§1) Glucose uptake. […] Briefly, primary human subcutaneous adipocytes or primary human myoblasts were differentiated in 96-well microplates. […] All samples, including the positive and negative controls, were tested in triplicate. After a 2-h incubation at 37° C. and 5% CO2, the cells were washed with PBS and lysed. The cell lysate was mixed with scintillation fluid and radioactivity of each well was measured as counts per minute (CPM).

[3] = tested on: human adipocytes; experiment: Glucose uptake (3H-2-deoxyglucose) in adipocytes; assay type: cell-based; conditions: 100 nM insulin (positive control)
Description: as §1

Compound | Antioxidant effect in combination with α-tocopherol [1] | Increase in glucose uptake [2] | Increase in glucose uptake [3]
O=C1O[C@H]([C@@H](O)CO)C(O)=C1O [ascorbic acid] | additive | – | –
Oc1cc(O)c2c(c1)O[C@H](c1ccc(O)c(O)c1)[C@@H](O)C2 [catechin, Catechin] | synergistic | – | –
O=C(/C=C/c1ccc(O)c(O)c1)O[C@@H]1C[C@](O)(C(=O)O)C[C@@H](O)[C@H]1O [chlorogenic acid] | synergistic | – | –
insulin | – | 2.06 fold | 1.6 fold
